pIC50: −log10 of the molar value.
Legend:
[1] = target: EGFR (human) (UniProt P00533); details: a431
[2] = target: EGFR (human), P00533 [WT]
[3] = target: EGFR (human), P00533 [T790M]
Chain of EGFR (human), P00533 [T790M] (P00533 whole entry T790M, looked up): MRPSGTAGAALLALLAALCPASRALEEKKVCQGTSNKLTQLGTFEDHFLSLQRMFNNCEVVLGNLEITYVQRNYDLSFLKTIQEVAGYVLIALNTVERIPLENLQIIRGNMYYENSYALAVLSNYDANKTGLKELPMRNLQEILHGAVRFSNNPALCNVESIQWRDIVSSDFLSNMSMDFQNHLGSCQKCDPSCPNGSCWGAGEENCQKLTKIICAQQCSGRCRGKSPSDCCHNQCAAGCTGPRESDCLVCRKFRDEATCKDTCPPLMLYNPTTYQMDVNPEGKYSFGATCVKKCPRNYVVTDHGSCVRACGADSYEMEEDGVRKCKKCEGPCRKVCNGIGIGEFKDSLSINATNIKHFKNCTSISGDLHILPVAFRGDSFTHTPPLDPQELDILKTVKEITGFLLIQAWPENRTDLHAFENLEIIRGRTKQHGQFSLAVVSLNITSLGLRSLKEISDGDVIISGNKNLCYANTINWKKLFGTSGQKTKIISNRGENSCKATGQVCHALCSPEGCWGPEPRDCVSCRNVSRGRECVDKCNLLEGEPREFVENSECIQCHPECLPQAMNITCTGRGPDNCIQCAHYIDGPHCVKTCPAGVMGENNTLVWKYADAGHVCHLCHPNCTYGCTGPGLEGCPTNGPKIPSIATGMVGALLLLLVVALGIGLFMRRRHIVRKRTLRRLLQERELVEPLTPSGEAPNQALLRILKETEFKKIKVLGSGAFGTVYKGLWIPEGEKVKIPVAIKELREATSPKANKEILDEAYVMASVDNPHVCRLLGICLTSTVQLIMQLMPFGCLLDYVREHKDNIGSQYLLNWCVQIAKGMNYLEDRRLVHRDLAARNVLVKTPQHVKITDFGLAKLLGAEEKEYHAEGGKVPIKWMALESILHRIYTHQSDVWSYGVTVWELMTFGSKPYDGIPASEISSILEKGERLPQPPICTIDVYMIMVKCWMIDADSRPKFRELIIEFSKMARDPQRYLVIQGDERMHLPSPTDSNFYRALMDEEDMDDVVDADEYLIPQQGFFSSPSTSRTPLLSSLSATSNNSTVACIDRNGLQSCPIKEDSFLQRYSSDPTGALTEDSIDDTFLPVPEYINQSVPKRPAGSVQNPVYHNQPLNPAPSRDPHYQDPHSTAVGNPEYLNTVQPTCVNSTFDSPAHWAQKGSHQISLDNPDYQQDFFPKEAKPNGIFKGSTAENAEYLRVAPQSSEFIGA

Chain of EGFR (human) (P00533 whole entry, looked up): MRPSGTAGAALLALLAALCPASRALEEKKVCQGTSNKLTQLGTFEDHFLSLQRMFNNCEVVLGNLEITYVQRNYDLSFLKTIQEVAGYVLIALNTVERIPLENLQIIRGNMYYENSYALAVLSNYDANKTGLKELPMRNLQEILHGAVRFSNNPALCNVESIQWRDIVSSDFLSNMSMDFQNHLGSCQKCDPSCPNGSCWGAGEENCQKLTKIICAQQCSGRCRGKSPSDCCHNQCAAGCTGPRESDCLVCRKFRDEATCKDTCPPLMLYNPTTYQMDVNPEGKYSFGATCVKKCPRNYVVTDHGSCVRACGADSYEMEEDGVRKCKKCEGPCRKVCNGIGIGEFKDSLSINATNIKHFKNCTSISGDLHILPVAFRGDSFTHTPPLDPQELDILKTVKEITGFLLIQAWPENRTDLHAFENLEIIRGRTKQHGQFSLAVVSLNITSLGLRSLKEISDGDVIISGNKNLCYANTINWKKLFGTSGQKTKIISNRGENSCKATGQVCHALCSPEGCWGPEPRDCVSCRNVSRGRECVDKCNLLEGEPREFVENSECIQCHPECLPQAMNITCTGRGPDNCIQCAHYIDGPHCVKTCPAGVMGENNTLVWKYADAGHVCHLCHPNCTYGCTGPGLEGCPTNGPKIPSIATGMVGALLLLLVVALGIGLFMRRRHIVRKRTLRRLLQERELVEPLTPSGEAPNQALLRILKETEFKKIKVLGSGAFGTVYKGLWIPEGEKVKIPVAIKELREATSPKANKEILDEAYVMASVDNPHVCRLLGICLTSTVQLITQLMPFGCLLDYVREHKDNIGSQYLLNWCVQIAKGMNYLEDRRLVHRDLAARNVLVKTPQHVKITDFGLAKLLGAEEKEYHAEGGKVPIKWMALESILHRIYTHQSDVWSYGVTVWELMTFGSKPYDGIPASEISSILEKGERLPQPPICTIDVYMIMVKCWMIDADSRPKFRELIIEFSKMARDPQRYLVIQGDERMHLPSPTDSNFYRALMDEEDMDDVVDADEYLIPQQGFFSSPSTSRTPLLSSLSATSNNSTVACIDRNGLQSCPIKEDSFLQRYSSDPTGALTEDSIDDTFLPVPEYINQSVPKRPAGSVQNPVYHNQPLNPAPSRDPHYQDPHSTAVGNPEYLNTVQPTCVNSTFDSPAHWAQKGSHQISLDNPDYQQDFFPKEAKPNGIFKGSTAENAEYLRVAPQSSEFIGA
Chain of EGFR (human), P00533 [WT] (P00533 whole entry, looked up): as above

pIC50 [1] | pIC50 [2] | pIC50 [3] | SMILES
6.54 |  |  | COCCC(=O)NCc1coc(-c2c(N)ncnc2Nc2ccc(Oc3ccccc3F)c(Cl)c2)n1
6.41 |  |  | C=C(CN(CC)CC)C(=O)NCc1cc(-c2cncnc2Nc2ccc(OCc3ccccn3)c(Cl)c2)on1
6.45 |  |  | C=C(CN(C)C)C(=O)NCc1coc(-c2c(N)ncnc2Nc2ccc(Oc3ccc(C)nc3)c(C)c2)n1
6.21 |  |  | O=C(/C=C\CO)NCc1cc(-c2cncnc2Nc2ccc(OCc3ccccn3)c(Cl)c2)on1
 | 7.34 | 6.38 | C=CC(=O)NCc1coc(-c2c(NC(C)=O)ncnc2Nc2ccc(Oc3cc(C(F)(F)F)nn3C)c(Cl)c2)n1
6.86 |  |  | Nc1ncnc(Nc2ccc(OCc3ccccn3)c(Cl)c2)c1-c1nc(CNC(=O)CCO)co1
7.04 |  |  | C=CC(=O)NCc1coc(-c2c(N)ncnc2Nc2ccc(F)c(C)c2)n1
7.85 |  |  | C=CC(=O)NCc1coc(-c2c(NC(C)=O)ncnc2Nc2ccc(OCc3ccccn3)c(Cl)c2)n1
 | 8.38 | 7.80 | C=CC(=O)NCc1coc(-c2c(N)ncnc2Nc2ccc(Oc3ccccn3)c(Cl)c2)n1
6.74 | 7.67 |  | C=C(CN1CCOCC1)C(=O)NCc1cc(-c2cncnc2Nc2ccc(OCc3ccccn3)c(Cl)c2)on1
6.80 |  |  | Nc1ncnc(Nc2ccc(Oc3ccccc3F)c(Cl)c2)c1-c1nc(CNC(=O)CO)co1
6.92 | 8.35 | 6.81 | CN(C)C/C=C/C(=O)NCc1coc(-c2cncnc2Nc2ccc(OCc3ccccn3)c(Cl)c2)n1
7.10 | 7.99 | 7.39 | C=CC(=O)NCc1cc(-c2cncnc2Nc2ccc(OCc3cccc(F)c3)c(Cl)c2)on1
 | 8.41 | 7.87 | C=CC(=O)NCc1coc(-c2cncnc2Nc2ccc(OCc3ccccn3)c(Cl)c2)n1
 | 8.41 | 8.49 | C=CC(=O)NCc1coc(-c2c(N)ncnc2Nc2ccc(Oc3cc(Cl)ccc3Cl)c(Cl)c2)n1
8.08 | 8.08 | 6.90 | C=CC(=O)NCc1coc(-c2c(N)ncnc2Nc2ccc(Oc3ccnn3C)c(Cl)c2)n1
6.58 |  |  | C=C(CN1CCCC1)C(=O)NCc1cc(-c2cncnc2Nc2ccc(OCc3ccccn3)c(Cl)c2)on1
5.98 |  |  | C=CC(=O)N1CCCC(c2cc(-c3cncnc3Nc3ccc(OCc4cccc(F)c4)c(Cl)c3)on2)C1 (centres undefined)
 | 8.15 | 8.48 | C=CC(=O)NCc1coc(-c2c(N)ncnc2Nc2ccc(Oc3ccccc3)c(Cl)c2)n1
 | 8.31 | 6.89 | C=CC(=O)NCc1coc(-c2c(N)ncnc2Nc2ccc(OCc3ccccn3)c(F)c2)n1
6.54 |  |  | C=C(CS(C)(=O)=O)C(=O)NCc1cc(-c2cncnc2Nc2ccc(OCc3ccccn3)c(Cl)c2)on1
6.72 | 8.49 | 8.60 | C=C(CN(C)C)C(=O)NCc1coc(-c2c(N)ncnc2Nc2ccc(OCc3ccccn3)c(Cl)c2)n1
5.51 |  |  | C=CC(=O)N1CCC(c2cc(-c3cncnc3Nc3ccc(OCc4cccc(F)c4)c(Cl)c3)on2)CC1
6.08 |  |  | Nc1ncnc(Nc2ccc(Oc3ccccc3F)c(Cl)c2)c1-c1nc(CNC(=O)CCO)co1

pIC50 [1] | pIC50 [2] | pIC50 [3] | SMILES
6.37 |  |  | C=CC(=O)NCc1coc(-c2c(N)ncnc2Nc2ccc(Sc3nccn3C)c(Cl)c2)n1
6.95 |  |  | CN(C)C/C=C/C(=O)NCc1cc(-c2cncnc2Nc2ccc(OCc3cccc(F)c3)c(Cl)c2)on1
7.16 |  |  | C=CC(=O)N(C)Cc1cc(-c2cncnc2Nc2ccc(OCc3cccc(F)c3)c(Cl)c2)on1
6.36 |  |  | C=CC(=O)NCc1coc(-c2cncnc2Nc2ccc(F)c(Cl)c2)n1
7.19 |  |  | C=CC(=O)NCc1cc(-c2cncnc2Nc2ccc(Br)c(Cl)c2F)on1
7.01 |  |  | C=C(CN(C)C)C(=O)NCc1coc(-c2cncnc2Nc2ccc(F)c(Cl)c2)n1
 | 7.56 | 7.72 | C=CC(=O)NCc1coc(-c2c(N)ncnc2Nc2ccc(OCc3cccc(F)c3)c(Cl)c2)n1
8.30 |  |  | CN(C)C/C=C/C(=O)NCc1cc(-c2cncnc2Nc2ccc(OCc3ccccn3)c(Cl)c2)on1
6.50 | 8.46 | 8.47 | C=C(CN(C)C)C(=O)NCc1coc(-c2cncnc2Nc2ccc(OCc3ccccn3)c(Cl)c2)n1
6.89 |  |  | C=CC(=O)NCC1COC(c2c(N)ncnc2Nc2ccc(OCc3ccccn3)c(Cl)c2)=N1 (centres undefined)
6.51 |  |  | C=C(CN1CCN(C)CC1)C(=O)NCc1cc(-c2cncnc2Nc2ccc(OCc3ccccn3)c(Cl)c2)on1
7.06 |  |  | CN(C)C/C=C/C(=O)NCc1coc(-c2c(N)ncnc2Nc2ccc(F)c(Cl)c2)n1
8.70 | 8.04 | 7.00 | C=CC(=O)NCc1cc(-c2cncnc2Nc2ccc(OCc3ccccn3)c(Cl)c2)on1
7.59 |  | 8.16 | C=C(CN(C)C)C(=O)NCc1coc(-c2c(N)ncnc2Nc2ccc(F)c(Cl)c2)n1
6.49 |  |  | Cc1ccc(Oc2ccc(Nc3ncnc(N)c3-c3nc(CNC(=O)/C=C/CN(C)C)co3)cc2C)cn1
 |  | 6.97 | C=CC(=O)NCc1coc(-c2c(N)ncnc2Nc2ccc(Oc3ccc(C)nc3)c(C)c2)n1
 |  | 7.66 | C=CC(=O)NCc1coc(-c2c(N)ncnc2Nc2ccc(Oc3cccnc3)c(Cl)c2)n1
7.11 |  |  | CN(C)C/C=C/C(=O)NCc1coc(-c2c(N)ncnc2Nc2ccc(Oc3ccccc3)c(Cl)c2)n1
7.54 | 8.21 | 6.79 | CN(C)C/C=C/C(=O)NCc1coc(-c2c(N)ncnc2Nc2ccc(OCc3ccccn3)c(Cl)c2)n1
 |  | 7.30 | C=CC(=O)NCc1coc(-c2c(N)ncnc2Nc2ccc(F)c(Cl)c2)n1
6.30 |  |  | C=CC(=O)NCCc1cc(-c2cncnc2Nc2ccc(OCc3cccc(F)c3)c(Cl)c2)on1
9.00 | 8.06 | 7.91 | C=C(CN(C)C)C(=O)NCc1cc(-c2cncnc2Nc2ccc(OCc3ccccn3)c(Cl)c2)on1
6.88 |  |  | C=CC(=O)N1CCCC1c1cc(-c2cncnc2Nc2ccc(OCc3cccc(F)c3)c(Cl)c2)on1 (centres undefined)
 | 8.07 | 6.77 | C=CC(=O)NCc1coc(-c2c(N)ncnc2Nc2ccc(OCc3ccccn3)cc2F)n1

— the Kinase Knowledgebase extract (Sharma et al. 2016)
